pIC50: −log10 of the molar value.
Tested on: Entamoeba histolytica
Experiment: MMV: Primary screening was performed with each compound at a 30 uM final concentration and in triplicate in sealed 96-well polystyrene microtiter plates. Parasite inocula (100 ul) comprising 20000 parasites/ml were added to each well and grown at 37 degrees C in a humidified atmosphere of 5% CO2 for 72 h. Positive controls consisted of metronidazole at 1 mg/ml. The growth of E. histolytica trophozoites in each well was determined microscopically by measuring the diameters of the confluent cells in drug-containing wells relative to those in the nega- tive-control wells.
Assay type: functional, organism-based
Settings: not given

| Compound | pIC50 |
| --- | --- |
| COc1nc(Nc2ccc(C(C)C)cc2)nc(OC)n1 | < 4.52 |
| CCN(CC)CCNc1ncnc2c1[nH]c1ccc(Br)cc12 | < 4.52 |
| O=C(Nc1ccc(Cl)cc1)N1CCN(c2ccc3nncn3n2)CC1 | < 4.52 |
| CN(C)c1ccc(-c2nc3cc(N)ccc3[nH]2)cc1 | < 4.52 |
| O=C(CSc1ccc2nnc(-c3cccc(F)c3)n2n1)Nc1ccc2c(c1)OCO2 | < 4.52 |
| Cc1c(C)n(Cc2ccc(F)cc2)c2ccc(C(=O)NCc3ccco3)cc12 | < 4.52 |
| CCN(CC)c1ccc(NC(=O)c2cccs2)cc1 | < 4.52 |
| CCCCNCC(O)(c1ccc(Cl)cc1)c1ccc(Cl)cc1 | < 4.52 |
| CCCC(c1nnnn1C1CCCCC1)N1CCN(C(=O)c2ccco2)CC1 (stereo not drawn) | < 4.52 |
| CC(C)(C)C(=O)Nc1ccc(C(=O)Nc2cccc(-c3nc4ccccc4[nH]3)c2)cc1 | < 4.52 |
| COc1ccc(-c2nonc2NC(=O)c2cccc(C)c2)cc1OC | < 4.52 |
| COc1cccc(-c2nn(C)c3sc(C(=O)NCCN4CCN(c5ccccc5F)CC4)cc23)c1 | < 4.52 |
| O=C(Nc1ccc(N2CCN(Cc3ccccc3)CC2)cc1)c1cccs1 | < 4.52 |
| Cc1ccc(CN2CCC(C(=O)Nc3ccc(-c4cc5ccccc5[nH]4)cc3)CC2)o1 | < 4.52 |
| O=C(Nc1ccc(N2CCCCC2)c(Cl)c1)c1ccc(Br)o1 | < 4.52 |
| Cc1cc(C)c2nc(N3CCC(C(=O)NCCCN4CCC(N5CCCCC5)CC4)CC3)sc2c1 | < 4.52 |
| O=C(Nc1ccsc1C(=O)NC1CCCCC1)c1ccc(F)cc1 | < 4.52 |
| O=C(Nc1cccc(C(F)(F)F)c1)c1cc(Cl)ccc1O | < 4.52 |
| CC(C)(C)c1ccc(C(=O)Nc2nc3ccccc3s2)cc1 | < 4.52 |
| CCOc1cccc2sc(N(Cc3cccnc3)C(=O)C3CCCCC3)nc12 | < 4.52 |
| CC1CC(C)CN(C(=O)c2ccc(Cl)cc2Cl)C1 (stereo not drawn) | < 4.52 |
| COc1ccccc1CNC(=O)C1c2ccccc2C(=O)N(CC(C)C)C1c1cccs1 (stereo not drawn) | < 4.52 |

| Compound | pIC50 |
| --- | --- |
| COc1ccc(C2N(C)c3ccccc3N2C)cc1 | < 4.52 |
| CCN(CC)c1cc(C)c2cc(NC(=O)c3cccc(OC)c3)ccc2n1 | < 4.52 |
| CC(C)(C)CC(C)(C)NCC(O)COc1ccc2c(c1)CCC2 (stereo not drawn) | < 4.52 |
| CCOc1ccc(/C=C/c2nc(=O)c3ccccc3o2)cc1 | < 4.52 |
| O=C(Nc1ccccc1O)c1ccc(-c2ccc(Cl)cc2Cl)o1 | < 4.52 |
| CC(C)OCc1cc(CN2CCN(c3cccc(Cl)c3)CC2)c(O)c2ncccc12 | < 4.52 |
| O=C(Nc1nc(-c2ccccn2)cs1)c1ccccc1Br | < 4.52 |
| O=C(Nc1ccc(F)c(Cl)c1)Nc1ccc(Cl)c(Cl)c1 | < 4.52 |
| CC(O)(c1ccc(Cl)cc1)C(CN1CCCCC1)c1ccccc1 (stereo not drawn) | < 4.52 |
| CCOc1ccc(-c2nc(NC(=O)c3cccc(S(C)(=O)=O)c3)sc2C)cc1 | < 4.52 |
| CCOc1ccccc1CNC(=O)C1c2ccccc2C(=O)N(CC(C)C)C1c1cccs1 (stereo not drawn) | < 4.52 |
| Clc1ccc2[nH]c3c(NCCCN4CCOCC4)ncnc3c2c1 | < 4.52 |
| COc1ccccc1N1CCN(C(CNS(=O)(=O)c2ccc(Cl)cc2)c2cccnc2)CC1 (stereo not drawn) | < 4.52 |
| CCCc1c(C)nc2ccccc2c1O | < 4.52 |
| CCOc1c(Cl)cc(CNC(C)C(O)c2ccccc2)cc1OC (stereo not drawn) | < 4.52 |
| COc1ccc(C2Sc3ccccc3N=C3C2=C(O)c2ccccc23)cc1 (stereo not drawn) | < 4.52 |
| CCCN(CCC)CCCNC(=O)c1cc2c(-c3ccc(OC)c(OC)c3)nn(C)c2s1 | < 4.52 |
| CCN(CC)CCCNc1nc(-c2ccc(Cl)cc2)nc2ccccc12 | < 4.52 |
| CN1c2ccccc2N(C)C1c1ccc2c(c1)OCO2 | < 4.52 |
| O=C(NCC1Cc2cccc(-c3ccncc3)c2O1)c1csc2c1CCCC2 (stereo not drawn) | < 4.52 |
| C=C(C)CCC(C)N1CCC(N2CCC(C(=O)NCCc3ccccc3)CC2)CC1 (stereo not drawn) | < 4.52 |
| C=CCc1c(C)nc2ccccc2c1O | < 4.52 |

Tested on: Toxoplasma gondii
Experiment: MMV: A total of 100ul of inoculum was added to each well (parasite/cell ratio, ~10:1; final volume, 200 ul). Six hours after inoculation, nonadherent parasites were removed, and 100 ul of complete DMEM (1% penicillin-streptomycin, 3% FBS) supplemented with inhibitors at different concentrations (2-fold serial dilutions starting from 30 uM) was added to all except the negative-control wells. Positive controls, consisting of pyrimethamine (PYR) and sulfadiazine (SDZ) (20-mg/ml stocks in DMSO), were tested at a 2mg/ml final concentration. Each test was performed in triplicate.
Assay type: functional, organism-based
Settings: 6 h

| Compound | pIC50 |
| --- | --- |
| COc1nc(Nc2ccc(C(C)C)cc2)nc(OC)n1 | < 4.52 |
| CCN(CC)CCNc1ncnc2c1[nH]c1ccc(Br)cc12 | < 4.52 |
| O=C(Nc1ccc(Cl)cc1)N1CCN(c2ccc3nncn3n2)CC1 | < 4.52 |
| CN(C)c1ccc(-c2nc3cc(N)ccc3[nH]2)cc1 | < 4.52 |
| O=C(CSc1ccc2nnc(-c3cccc(F)c3)n2n1)Nc1ccc2c(c1)OCO2 | < 4.52 |
| Cc1c(C)n(Cc2ccc(F)cc2)c2ccc(C(=O)NCc3ccco3)cc12 | < 4.52 |
| CCN(CC)c1ccc(NC(=O)c2cccs2)cc1 | < 4.52 |
| CCCCNCC(O)(c1ccc(Cl)cc1)c1ccc(Cl)cc1 | < 4.52 |
| CCCC(c1nnnn1C1CCCCC1)N1CCN(C(=O)c2ccco2)CC1 (stereo not drawn) | < 4.52 |
| CC(C)(C)C(=O)Nc1ccc(C(=O)Nc2cccc(-c3nc4ccccc4[nH]3)c2)cc1 | < 4.52 |
| COc1ccc(-c2nonc2NC(=O)c2cccc(C)c2)cc1OC | < 4.52 |
| COc1cccc(-c2nn(C)c3sc(C(=O)NCCN4CCN(c5ccccc5F)CC4)cc23)c1 | < 4.52 |
| O=C(Nc1ccc(N2CCN(Cc3ccccc3)CC2)cc1)c1cccs1 | < 4.52 |
| Cc1ccc(CN2CCC(C(=O)Nc3ccc(-c4cc5ccccc5[nH]4)cc3)CC2)o1 | < 4.52 |
| O=C(Nc1ccc(N2CCCCC2)c(Cl)c1)c1ccc(Br)o1 | < 4.52 |
| Cc1cc(C)c2nc(N3CCC(C(=O)NCCCN4CCC(N5CCCCC5)CC4)CC3)sc2c1 | < 4.52 |
| O=C(Nc1ccsc1C(=O)NC1CCCCC1)c1ccc(F)cc1 | < 4.52 |
| O=C(Nc1cccc(C(F)(F)F)c1)c1cc(Cl)ccc1O | < 4.52 |
| CC(C)(C)c1ccc(C(=O)Nc2nc3ccccc3s2)cc1 | < 4.52 |
| CCOc1cccc2sc(N(Cc3cccnc3)C(=O)C3CCCCC3)nc12 | < 4.52 |
| CC1CC(C)CN(C(=O)c2ccc(Cl)cc2Cl)C1 (stereo not drawn) | < 4.52 |
| COc1ccccc1CNC(=O)C1c2ccccc2C(=O)N(CC(C)C)C1c1cccs1 (stereo not drawn) | < 4.52 |

| Compound | pIC50 |
| --- | --- |
| COc1ccc(C2N(C)c3ccccc3N2C)cc1 | < 4.52 |
| CCN(CC)c1cc(C)c2cc(NC(=O)c3cccc(OC)c3)ccc2n1 | < 4.52 |
| CC(C)(C)CC(C)(C)NCC(O)COc1ccc2c(c1)CCC2 (stereo not drawn) | < 4.52 |
| CCOc1ccc(/C=C/c2nc(=O)c3ccccc3o2)cc1 | < 4.52 |
| O=C(Nc1ccccc1O)c1ccc(-c2ccc(Cl)cc2Cl)o1 | < 4.52 |
| CC(C)OCc1cc(CN2CCN(c3cccc(Cl)c3)CC2)c(O)c2ncccc12 | < 4.52 |
| O=C(Nc1nc(-c2ccccn2)cs1)c1ccccc1Br | < 4.52 |
| O=C(Nc1ccc(F)c(Cl)c1)Nc1ccc(Cl)c(Cl)c1 | 4.58 |
| CC(O)(c1ccc(Cl)cc1)C(CN1CCCCC1)c1ccccc1 (stereo not drawn) | < 4.52 |
| CCOc1ccc(-c2nc(NC(=O)c3cccc(S(C)(=O)=O)c3)sc2C)cc1 | < 4.52 |
| CCOc1ccccc1CNC(=O)C1c2ccccc2C(=O)N(CC(C)C)C1c1cccs1 (stereo not drawn) | < 4.52 |
| Clc1ccc2[nH]c3c(NCCCN4CCOCC4)ncnc3c2c1 | < 4.52 |
| COc1ccccc1N1CCN(C(CNS(=O)(=O)c2ccc(Cl)cc2)c2cccnc2)CC1 (stereo not drawn) | < 4.52 |
| CCCc1c(C)nc2ccccc2c1O | < 4.52 |
| CCOc1c(Cl)cc(CNC(C)C(O)c2ccccc2)cc1OC (stereo not drawn) | < 4.52 |
| COc1ccc(C2Sc3ccccc3N=C3C2=C(O)c2ccccc23)cc1 (stereo not drawn) | < 4.52 |
| CCCN(CCC)CCCNC(=O)c1cc2c(-c3ccc(OC)c(OC)c3)nn(C)c2s1 | < 4.52 |
| CCN(CC)CCCNc1nc(-c2ccc(Cl)cc2)nc2ccccc12 | < 4.52 |
| CN1c2ccccc2N(C)C1c1ccc2c(c1)OCO2 | < 4.52 |
| O=C(NCC1Cc2cccc(-c3ccncc3)c2O1)c1csc2c1CCCC2 (stereo not drawn) | < 4.52 |
| C=C(C)CCC(C)N1CCC(N2CCC(C(=O)NCCc3ccccc3)CC2)CC1 (stereo not drawn) | 4.57 |
| C=CCc1c(C)nc2ccccc2c1O | < 4.52 |
